For one series, the system named is HepG2. Put plainly: Cellular internalization of gemcitabine-bound chemically optimized aptamers. The series is classed as cell-based. The conditions noted are these: analysis in HepG2 and A431 cells, FIGS. 20 to 22. The protocol: [The source words this procedure for another cell line and reports this cell line under the same test.] 5 aptamer libraries prepared by truncating the 12-10 aptamer at various lengths [12-12 (35-mer), 12-11 (29-mer), 12-13 (24-mer), 12-14 (23-mer), and 12-15 (18-mer)] were subjected to cellular internalization analysis. In detail, a 6-well plate was prepared, and a round cover glass was placed in the 6-well plate. Huh-7 cells were cultured in the 6-well plate according to the method of Example 1-3. 5 μM of the aptamer stock was mixed with 5×SB18 buffer to prepare the aptamer at a concentration of 4 μM, and heated at 95° C. for 5 min, and then cooled at room temperature for 15 min or more. The next day, the medium was removed from the cultured cells, and a serum-free medium was added thereto, and cultured under conditions of 37° C. and 5% CO2 for 1 hr. The serum-free medium was removed, and then the cells were washed with 2 mL of 1×PBS. KRPH buffer was added, and cultured under conditions of 37° C. and 5% CO2 for 1 hr. 4 μM aptamer was diluted to 25 nM, and then cultured under conditions of 37° C. and 5% CO2 for 1 hr or 4 hr. Washing was repeated three times with 2 mL of 1×PBS. Washing was performed in a shaker at room temperature for 10 min while blocking the light. Thereafter, the cells were fixed by treatment with 4% paraformaldehyde at 4° C. for 10 min. Washing was repeated three times with 2 mL of 1×PBS. […]

The test system of series [1] is GPC3-expressing hepatoma cells. Put plainly: Cell-killing effect (CCK-8) of gemcitabine-bound combi aptamers. Format: cell-based. Particulars: FIG. 23 and FIG. 24. The protocol:
In detail, Huh-7 cells (ATCC, Rockville, MD, USA) were seeded in a 96-well plate at a density of 1×10^4/mL, and cultured using a DMEM (Gibco, Grand Island, NY, USA) medium containing 10% FBS (Gibco, Grand Island, NY, USA) and 1% antibiotics (penicillin/streptomycin) under conditions of 5% CO2 and 37° C. Next day, the aptamer stock (100 μM) was mixed with 5×SB18 buffer to prepare the stock at a concentration of 80 μM, and heated at 95° C. for 5 min, and then cooled at room temperature for 15 min or more. The medium was removed from the cultured cells, and 100 μL of a serum-free medium was added thereto, and cultured under conditions of 37° C. and 5% CO2 for 1 hr. The serum-free medium was removed, and then the cells were washed with 100 μL of 1×PBS. 100 μL of KRPH buffer was added, and cultured under conditions of 37° C. and 5% CO2 for 1 hr. The aptamer was diluted with KRPH buffer to 2-fold of the desired concentration, and added to a 96-well plate at 1× concentration, and cultured under conditions of 37° C. and 5% CO2 for 4 hr. After treatment with the aptamer, the KRPH buffer was removed, and then 100 μL of culture medium was added and cultured under conditions of 37° C. and 5% CO2 for […]. 6 days later, 10 μL of a kit solution of CCK-8 (Cell Counting Kit-8) was added to each well, and then cultured under conditions of 37° C. and 5% CO2 for 3 hr. Cell death levels were examined at […] using a microplate reader.

For series [2], the system named is hepatoma cells (Hep3B, HepG2). Put plainly: Cell cycle analysis (propidium iodide, FACS). The conditions noted are these: 4 hr treatment, FIGS. 25 and 26. The series is classed as cell-based. As for the experimental part:
(§1) To analyze the effects of combi 4 and combi 5 bound with three or five gemcitabines on the cell cycle of hepatoma cells, cell cycle analysis was performed. In detail, Hep3B, HepG2, and A431 cells were seeded in a 6-well plate at a density of 1×10^6/ml, and cultured using a DMEM medium containing 10% FBS and 1% antibiotics (penicillin/streptomycin) under conditions of 5% CO2 and 37° C., respectively. Next day, 100 μM of the modified aptamer stock was mixed with 5×SB18 buffer to prepare the aptamer at a concentration of 80 μM, and heated at 95° C. for 5 min, and then cooled at room temperature for 15 min or more. The medium was removed from the cultured cells, and replaced by a serum-free medium, and cultured under conditions of 37° C. and 5% CO2 for 1 hr. The serum-free medium was removed, and then the cells were washed with 2 ml of 1×PBS. 2 ml of KRPH buffer was added, and cultured under conditions of 37° C. and 5% CO2 for 1 hr. The aptamer was added, and cultured under conditions of 37° C. and 5% CO2 for 4 hr. The KRPH buffer was removed, and 2 ml of 1×PBS was added thereto to perform washing, and then PBS was removed. 2 ml of 1×PBS was added, and cells were scraped using a scraper, and collected in FACs tubes, followed by centrifugation at 4° C. and 2000 rpm for 4 minutes. 1/500-fold diluted RNAase A and propidium iodide diluted with PBS at a concentration of 50 μg/ml were added to the FACs tubes at a volume of 500 μL, followed by pipetting. Incubation was performed at room temperature for 30 min while blocking the light, and then cell cycle was measured.

In series [3] the test system is squamous cell carcinoma cells (A431). Put plainly: Cell cycle analysis (propidium iodide, FACS). Particulars: 4 hr treatment, FIG. 27. The series is classed as cell-based. As for the experimental part: as §1
Series [4] can be described thus: Serum stability analysis (urea PAGE). Format: in vitro ADME, human. As for the experimental part:
To examine whether 12-12, combi 5 aptamer, combi 4 and combi 5 modified aptamers bound with three or five gemcitabines are stable in the human serum, serum stability was analyzed. In detail, 10 μL of […] was added to 100% human serum, followed by incubation at 37° C. for 0 hr, 1 hr, 3 hr, 6 hr, 12 hr, and 24 hr. After incubation, 5 μL of […] was added, and distilled water was added to a volume of 250 μL. 250 μL of phenol:chloroform:isoamyl alcohol (25:24:1) was added in the equal volume, followed by stirring. Each sample was centrifuged at 16000×g for 10 min. The supernatant was transferred to a new tube, and completely dried. The resultant was diluted with 5× sample buffer and distilled water, and boiled at 95° C. for 5 min, and cooled. The sample was separated by urea PAGE (Polyacrylamide gel Electrophoresis) at 220 V for 25 min, and then stained with SYBR gold and examined using a Gel Doc™ EZ system.

“Combi 5 G(3) (DNA GNGAANGCGNNGAANNANWYSSSNNCAGNCANCAC; gemcitabines, 2'-OMe, 2'-F, BzdU, 3' idT; Combi 5 G(3); (1)..(1) G is 2-O-Methoxy-DNA.; (2)..(2) n is BzdU.; (3)..(3) G is 2-O-Methoxy-DNA.; (4)..(4) A is 2-Fluorine-DNA.; (5)..(5) A is 2-Fluorine-DNA.; (6)..(6) n is BzdU.; (10)..(10) n is BzdU.; (11)..(11) n is BzdU.; (12)..(12) G is 2-Fluorine-DNA.; (13)..(13) A is 2-Fluorine-DNA.; (14)..(14) A is 2-O-Methoxy-DNA.; (15)..(15) n is BzdU.; (16)..(16) n is BzdU.; (17)..(17) A is 2-O-Methox)”: the cellular internalization entry in the series on HepG2 is on record as “excellent cellular internalization”. Moreover, the “concentration from which a cell-killing effect is shown” value in series [1] was found to be 100 nM. Moreover, the cell cycle arrest entry is given as “arrested hepatoma cells at the G1/S phase” in series [2] and “no cell cycle arrest” in series [3]. The “half-life in the human serum” value in series [4] (100% human serum, 37° C., FIG. 28) is “about 64 hr”. Also, in series [4] (human serum), the “improvement of serum half-life compared with 12-12 aptamer” value is reported as ≥ 10 times.
